Experimental data: patent US5342842A, “Pyrimidone derivatives and analogs in the treatment of asthma or certain skin disorders” (Pfizer Inc., priority 1992, dated 1994)

How the values were obtained:
[1] = target: Pulmonary Phosphodiesterase (PDEIV); test: Inhibition of pulmonary phosphodiesterase (PDEIV) from guinea pig lung, [3H]cAMP hydrolysis; type: biochemical; settings: 1 μM [3H]-cAMP, 37° C., 10 minutes, 1% DMSO, read-out: IC50, concentration which inhibits 50% of specific hydrolysis of [3H]cAMP to [3H]5' AMP
Protocol: Lung tissue from guinea pigs was placed in a homogenization buffer solution (20 mM Bistris, 5 mM 2-mercaptoethanol, 2 mM benzamidine, 2 mM EDTA, 50 mM sodium acetate, pH 6.5) at a concentration of 10 ml/gm of tissue. The tissue was homogenized using a Tekmar Tissumizer at full speed for 10 seconds. Phenylmethylsulfonyl fluoride (PMSF, 50 mM in 2-propanol) was added to the buffer immediately prior to homogenization to give a final PMSF concentration of 50μM. The homogenate was centrifuged at 12,000×g for 10 minutes at 4° C. The supernatant was filtered through gauze and glass wool and then applied to a 17×1.5 cm column of DEAE-Sepharose CL-6B, pre-equilibrated with homogenization buffer, at 4° C. A flow rate of 1 ml/min was used. After the supernatant had passed through the column, the column is washed with a volume of homogenization buffer at least two times that of the supernatant. […] Fractions were saved based on specific PDEIV activity, determined by [^3 H]cAMP hydrolysis and the ability of a […]. […]
The reaction tubes were shaken and placed in a water bath (37° C.) for 10 minutes, at which time the reaction was stopped by placing the tubes in a boiling water bath for 2 minutes. […] After vortexing, 1 ml of the elution was added to 3 ml Atomlight scintillation fluid in an appropriate vial, vortexed, and counted for [^3 H].
Percent inhibition is determined by the formula: [formula] […]

human PDE [2] = test: Inhibition of PDE in leukocyte homogenate preparation (human PDE assays, Dr. Hanifin); type: biochemical
Description: (§1) See Grewe et al., J. Allergy Clin. Immunol., v. 70, pp. 452-457, 1982. […] Dr. Hanifin has a source of human PDE isolated from mononuclear leukocyte. They were approached and readily agreed to test 5-[3-(exo-bicyclo[2.2.1]hept-2-yloxy)-4-methoxyphenyl]-3,4,5,6-tetrahydropyrimidin-2(1H)-one in their human PDE assays (see Cooper et al., cited above).

human PDE [3] = test: Inhibition of PDE in intact human peripheral blood leukocyte preparation (human PDE assays, Dr. Hanifin); type: cell-based
Description: as §1

[4] = tested on: Eosinophil Migration into Sensitized Lung Tissue; test: Inhibition of eosinophil migration into sensitized lung tissue challenged with antigen in guinea pigs (specific EPO response in lung lavage); type: in vivo, guinea pig; settings: Cavia porcellus, po, P.O., guinea pigs sensitized with anti-OA IgG1, ovalbumin aerosol challenge, lavage after 18 hours
Protocol: Normal Hartley guinea pigs (300-350 grams) delivered from Charles River Laboratories were housed 5-7 days before sensitization. Guinea pigs were then sensitized with 0.5 mg/kg anti-OA IgG1 or saline as control. After 48-72 hours, guinea pigs were dosed P.O. in groups of six animals each with compounds at up to 32 mg/kg using 2% Tween 80 as vehicle. After 1-1.5 hours the animals were injected i.p. with 5 mg/kg pyrilamine. Thirty minutes following pyrilamine administration, animals were exposed to 10 minutes of a 0.1% ovalbumin (OA) aerosol followed by a 15 minute cloud decay period in a Tri-R Airborne Infection Apparatus (Compression air flow =20 L/min, main air flow =8.4 L/min). Guinea pigs were removed from the apparatus and caged for 18 hours prior to sacrifice and the following lung lavage procedure. […]
The aliquoted sample with Triton was diluted with 1 ml PBS/0.1% Triton buffer (pH 7.0). […] The O.D. of the mixture was measured at 490 nm, with background O.D. (blank tube) subtracted out.
Duplicate O.D. readings were averaged to obtain a single value for each animal. Average O.D. ± standard error is calculated using the six obtained values within each group of animals. Specific EPO response due to antigen challenge is calculated by: [formula] Percent inhibition of specific EPO response due to drug pretreatment is calculated by: [formula]

[5] = tested on: antigen-induced skin edema; test: Inhibition of skin edema in guinea pigs sensitized to ovalbumin; type: in vivo, guinea pig; settings: 32 mg/Kg oral
Protocol: Four guinea pigs (Hartley, male, 350-400 g) were sensitized with anti-ovalbumin IgG1 antibody. Two guinea pigs were orally dosed with 32 mg/Kg of the test compound and two other guinea pigs were dosed with vehicle (2% Tween-80). One-hour after dosing, each guinea pig was injected intraveneously with 1 ml of Evan Blue (7 mg/ml) and then his skin was challenged intradermally with 0.1 ml of ovalbumin (0.1%) or PBS. Twenty minutes after challenge, the skin was removed and skin edematous site (circular blue spots at challenge sites) was examined visually.

- IC50 [1]: 500 nM
- IC50 (human PDE [2]; human leukocyte homogenate preparation): 200 nM
- IC50 (human PDE [3]; intact human peripheral blood leukocytes): 300 nM
Compound: COc1ccc(C2CNC(=O)NC2)cc1O[C@@H]1C[C@H]2CC[C@@H]1C2 (relative stereo) [5-[3-(exo-bicyclo[2.2.1]hept-2-yloxy)-4-methoxyphenyl]-3,4,5,6-tetrahydropyrimidin-2(1H)-one]
- potency in inhibiting PDE compared to Ro-20-1724 (human PDE [2]; leukocyte homogenate preparation, compared to Ro-20-1724): even greater potency than Ro-20-1724
- potency in inhibiting PDE compared to Ro-20-1724 (human PDE [3]; intact human peripheral blood leukocyte preparation, compared to Ro-20-1724): even greater potency than Ro-20-1724
- ED50 [4]: 10 mg/kg
- intensity and area of blue spots at antigen-challenged skin sites as compared to vehicle-dosed animals ([5]; two guinea pigs, intradermal ovalbumin (0.1%), 20 minutes after challenge, visual examination): markedly reduced
- effectiveness against antigen-induced skin edema in guinea pigs ([5]; conclusion of the test): effective against antigen-induced skin edema in guinea pigs
